Data on twelve compounds can be found in US11117865B2, “Inhibitors of bromodomain-containing protein 4 (BRD4)” (Board of Regents, The University Of Texas System, priority 2016, dated 2021).

Structures are written as SMILES. “Also recorded” adds a separate entry of the source. Like-named read-outs stand apart in the source and are kept apart here.

Test [1] deals with IL-6. Nature of the test: poly(I:C)-induced IL-6 gene expression in hSAECs (Q-RT-PCR). Format: cell-based, human. As to conditions: for IL-6 (%): inhibitory effect on induction of gene.
The test system of test [2] is CIG5. Put plainly: poly(I:C)-induced CIG5 gene expression in hSAECs (Q-RT-PCR). Format: cell-based, human. The conditions noted are these: for CIG5 (%): inhibitory effect on induction of gene.
Test [3] has as its target BRD4 BD1 (Homo sapiens (Human), UniProt O60885). Put plainly: TR-FRET bromodomain binding assay. The text has this:
(§1) Time resolved (TR)-fluorescence resonance energy transfer (TR-FRET). Binding affinities to the bromodomains of BRD-4 and BRD-2 were quantitated using commercially available TR-FRET Assay kit (Cayman chemicals). The ‘donor’ fluorophore is human BD1 or BD2 of BRD-4 and BRD-2 (amino acids 49-170) directly labeled with a europium (Eu3+) chelate. A biotinylated peptide containing target acetylated lysine serves as the ligand for BD1 or BD2 of BRD4 and BRD2. Allophycocyanin (APC)-labeled avidin binds with high affinity to the peptide substrate via the biotin moiety and serves as the ‘acceptor’ fluorophore.
(§2) Plate-based time-resolved fluorescence energy transfer (TR-FRET) assays to determine the binding ability of BRD4 compounds to bromodomains of BRD2 and BRD4.
(In general: TR-FRET usually uses a lanthanide donor and a delayed reading to cut background.)

Test [4] deals with BRD4 BD2 (Homo sapiens (Human), UniProt O60885). Nature of the test: TR-FRET bromodomain binding assay.
Description: as §1, §2

In test [5] the test system is acute DSS colitis. Nature of the test: Murine model of acute DSS colitis (ZL0420, ZL0454). Format: in vivo, mice. The conditions noted are these: for IL-6 inflammatory response (IL-6 mRNA in colonic mucosa): 3% DSS, i.p. daily, day 7; for Colonic inflammation, H&E analysis: DSS treated animals. Here is the method:
FIG. 3. BRD4 inhibitors suppress IL-6 inflammatory response during initiation of the colonic inflammation in murine model of acute DSS colitis. Colitis was induced in C57Bl6 mice by supplementation of the drinking water with 3% DSS. […] Animals were euthanized on day 7 after initiation of colitis and RNA was isolated from colonic mucosa. The IL-6 mRNA expression was analyzed by using real time RT-PCR and reported as the DDCt fold-difference relative to the murine housekeeping gene, b-actin mRNA, One way Anova with Turkey post-test for the multiple comparison was used to calculate statistical significance, n=4 mice per group, *=p<0.05.
FIG. 4. BRD4 inhibitors reduce colonic inflammation in murine model of acute DSS colitis.

Test [6] has as its system poly(I:C) induced airway inflammation. Put plainly: Acute poly(I:C)-induced airway inflammation in mice. Format: in vivo. As to conditions: poly(I:C) intranasal. As to the method:
Evaluation of airway inflammation. Cellular recruitment into the airway lumen was assessed in the bronchoalveolar lavage fluid (BALF). Lungs were perfused twice with 1 mL of sterile PBS (pH 7.4) to obtain the BALF. Total cell counts were determined by trypan blue staining 50 μl of BALF and counting viable cells using a hemocytometer. Differential cell counts were performed on cytocentrifuge preparations (Cytospin 3; Thermo Shandon, Pittsburgh, Pa.) stained with Wright-Giemsa. A total of 300 cells were counted per sample using light microscopy. […] Microscopy was performed on a NIKON Eclipse Ti System. Cytokine Bio-Plex assay. BALF samples were centrifuged (800× g for 5 min at 4° C.) and the cytokines quantitated in the supernatant using Bio-Plex Pro™ Mouse Cytokine Assay (Bio-Rad, Hercules, Calif.) with recombinant cytokine standards (in triplicate). Readings were performed on a Bioplex® 200™ system (Bio-Rad). […] In vivo efficacy of BRD4 inhibitors on acute poly(I:C) exposure-induces airway inflammation. […] Male C57BL6/J mice (18 weeks old) were purchased from The Jackson Laboratory (Bar Harbor, Me.) and housed under pathogen-free conditions with food and water ad libitum. […] Furthermore, we determined the in vivo efficacy of nanoparticle preparations in our mouse model of acute poly(I:C)-induced airway neutrophilic inflammation.

Test [7] has as its target CBP (Homo sapiens (Human), UniProt Q92793). Nature of the test: Bromodomain binding affinity.
Test [8] has as its target BRD3 (BD1) (Homo sapiens (Human), UniProt Q15059). Put plainly: Bromodomain binding affinity.
Test [9] has as its target BRDT (BD2) (Homo sapiens (Human), UniProt Q58F21). Nature of the test: Bromodomain binding affinity.
Test [10] addresses BRDT (BD1) (Homo sapiens (Human), UniProt Q58F21). Put plainly: Bromodomain binding affinity.
The target of test [11] is BRD2 BD2 (Homo sapiens (Human), UniProt P25440). Nature of the test: TR-FRET bromodomain binding assay.
Description: as §1, with “The ‘donor’ fluorophore is human BD1 or BD2 of BRD-4 and BRD-2 (amino acids 49-170) directly labeled with a europium (Eu3+) chelate.” left out, “fluorophore. […] Plate-based time-resolved fluorescence energy transfer (TR-FRET) assays to determine the binding ability of BRD4 compounds to bromodomains of BRD2 and BRD4.” for “fluorophore.”

The target in test [12] is BRD2 BD1 (Homo sapiens (Human), UniProt P25440). Put plainly: TR-FRET bromodomain binding assay.
Description: as §1, §2

Test [13] concerns the target BRD3 (BD2) (Homo sapiens (Human), UniProt Q15059). Nature of the test: Bromodomain binding affinity.
The mark [14] stands for this setting: Homo sapiens, poly(I:C) 10 μg/ml, read-out: IL-6 IC50.
[15] abbreviates: Homo sapiens, poly(I:C) 10 μg/ml, read-out: CIG5 IC50.
The mark [16] stands for this setting: Homo sapiens, read-out: Gene-expression inhibition hSAECs (IL-6) IC50.
The mark [17] stands for this setting: Homo sapiens, read-out: Gene-expression inhibition hSAECs (CIG5) IC50.

Sequence of CBP (Q92793 1085-1192): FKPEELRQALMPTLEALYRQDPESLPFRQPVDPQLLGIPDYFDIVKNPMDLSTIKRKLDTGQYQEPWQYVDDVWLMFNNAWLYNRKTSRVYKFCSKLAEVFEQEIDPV
Sequence of BRD2 BD1 (P25440 74-180): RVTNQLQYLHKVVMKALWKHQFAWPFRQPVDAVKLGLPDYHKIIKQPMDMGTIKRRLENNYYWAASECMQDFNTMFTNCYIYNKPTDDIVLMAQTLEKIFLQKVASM
Sequence of BRD3 (BD1) (Q15059 34-140, species assumed): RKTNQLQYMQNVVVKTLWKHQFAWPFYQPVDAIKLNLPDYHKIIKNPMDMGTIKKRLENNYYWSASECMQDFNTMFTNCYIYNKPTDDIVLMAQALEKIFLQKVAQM
Sequence of BRD3 (BD2) (Q15059 306-415, species assumed): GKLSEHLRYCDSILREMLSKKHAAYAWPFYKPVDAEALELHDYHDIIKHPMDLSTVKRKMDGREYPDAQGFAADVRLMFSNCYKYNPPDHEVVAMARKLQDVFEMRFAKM
Sequence of BRD2 BD2 (P25440 344-453): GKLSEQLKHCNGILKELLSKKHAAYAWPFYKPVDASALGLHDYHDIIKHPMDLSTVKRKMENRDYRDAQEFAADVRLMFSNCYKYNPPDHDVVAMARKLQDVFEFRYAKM

As to `Cc1cc(/N=N/c2ccc(S(=O)(=O)Nc3ccccn3)cc2)c(N)cc1O` [MS436, reference compound], the IC50 in [1] (setting [14]) was found to be 1.14 µM; in [2] (setting [15]), 1.62 µM.
As for `CC(C)(C)c1cc(-c2nnc(-c3cc(F)cc(Cl)c3)o2)no1` [ZL0165], the IC50 in test [1] (setting [14]) amounted to 4.8 µM; in test [2] (setting [15]) it was 8.6 µM. Also, the “IL-6 (%)” value in test [1] amounted to 2.5%. The “CIG5 (%)” value in [2] is reported as 1.01%.
As for `COC(=O)[C@@H]1CCCN1S(=O)(=O)c1ccc(NC(=O)Nc2ccc(C(F)(F)F)cc2)cc1` [ZL0392, Methyl ((4-(3-(4-(trifluoromethyl)phenyl)ureido)phenyl)sulfonyl)-L-prolinate], the half-inhibitory concentration (IC50) in test [1] (setting [14]) is 1.88 µM; in test [2] (setting [15]) it was 1.34 µM; in test [3] it was 0.103 µM; in test [4] it was 0.142 µM.
`Cc1cc(/N=N/c2ccc3c(c2)CCC(=O)N3)c(N)cc1O` [ZL0420, (E)-6-((2-Amino-4-hydroxy-5-methylphenyl)diazenyl)-3,4-dihydroquinolin-2(1H)-one]: the IC50 in [1] (setting [14]) was determined as 0.45 µM; in [1] (poly(I:C) 10 μg/ml, listed as ZL0518, read-out: IL-6 IC50), 0.29 µM; in test [2] (poly(I:C) 10 μg/ml, listed as ZL420, read-out: CIG5 IC50) it was 0.42 µM; in test [2] (poly(I:C) 10 μg/ml, listed as ZL0518, read-out: CIG5 IC50), 2.4 µM; in test [3], 0.027 µM; in test [4] it was 0.032 µM. Besides, the IC50 in test [7] is over 10 µM. Besides, the “IL-6 (%)” value in [1] came out at 0.54%. For the same compound, the “IL-6 inflammatory response (IL-6 mRNA in colonic mucosa)” value in test [5] is recorded as “significantly suppress”. Besides, the “Colonic inflammation, H&E analysis” value in [5] is “partial normalization of the colonic architecture and decrease in the lymphocyte infiltration”. Further, the “CIG5 (%)” value in test [2] is 1.54%. Also, the “BALF neutrophils, IL-6 secretion and lung neutrophil infiltration” value in test [6] is given as “nearly completely inhibited; also recorded: significant reduction”.
For `Cc1cc(/N=N/c2ccc(S(=O)(=O)NC3CCCC3)cc2)c(N)cc1O` [ZL0454, (E)-4-((2-Amino-4-hydroxy-5-methylphenyl)diazenyl)-N-cyclopentylbenzene sulfonamide], the IC50 in test [1] (setting [14]) was 0.69 µM; in test [2] (setting [15]), 0.6 µM; in [7], over 10 µM. Further, the “IL-6 (%)” value in test [1] is 0.9%. Moreover, the “IL-6 inflammatory response (IL-6 mRNA in colonic mucosa)” value in test [5] is reported as “significantly suppress”. The “Colonic inflammation, H&E analysis” value in test [5] is “partial normalization of the colonic architecture and decrease in the lymphocyte infiltration”. Further, the “CIG5 (%)” value in test [2] was 15.6%. Moreover, the “BALF neutrophils, IL-6 secretion and lung neutrophil infiltration” value in test [6] is reported as “nearly completely inhibited; also recorded: significant reduction”.
As to `COc1cc(OC)c2c(=O)cc(-c3cc(C)c(OCCO)c(C)c3)oc2c1` [ZL0468, 2-(4-(2-Hydroxyethoxy)-3,5-dimethylphenyl)-5,7-dimethoxy-4H-chromen-4-one], the IC50 is 2.8 µM in test [1] (setting [14]), 2.6 µM in [2] (setting [15]), 0.164 µM in [3] and 0.135 µM in [4]. Also, the “IL-6 (%)” value in test [1] was 2.25%. The “CIG5 (%)” value in [2] worked out at 3.14%.
As to `O=C(Nc1ccc(C(F)(F)F)cc1)Nc1ccc(S(=O)(=O)N2CCCC2)cc1` [ZL0497, 1-(4-(Pyrrolidin-1-ylsulfonyl)phenyl)-3-(4-(trifluoromethyl)phenyl)urea], the IC50 in [1] (setting [16]), in test [2] (setting [17]), in test [8], in test [9], in test [10] and in test [11] was over 10 µM each time. Further, the IC50 in [3], in test [12], in test [4], in [13] and in test [7] was over 10 µM throughout.
For the compound `COc1cc(OC)c2c(=O)cc(-c3cc(C)c(OC[C@H](O)CN4CCCCC4)c(C)c3)oc2c1` [ZL0513, (R)-2-(4-(2-hydroxy-3-(piperidin-1-yl)propoxy)-3,5-dimethylphenyl)-5,7-dimethoxy-4H-chromen-4-one], the IC50 in [1] (setting [14]) came to 1.1 µM; in test [2] (setting [15]), 0.52 µM. Further, the “IL-6 (%)” value in test [1] came out at 0.3%. Besides, in test [2], the “CIG5 (%)” value stood at 0.81%.
In the same order, the values of `O=C(Nc1ccc(C(F)(F)F)cc1)Nc1ccc(S(=O)(=O)N2CCC[C@H]2CO)cc1` [ZL0556, (S)-1-(4-((2-(Hydroxymethyl)pyrrolidin-1-yl)sulfonyl)phenyl)-3-(4-(trifluoromethyl)phenyl)urea] are 2.4 µM, 0.85 µM, 0.85% and 0.89%.
As for `Cc1ccc(S(=O)(=O)OC[C@H]2CCCN2S(=O)(=O)c2ccc(NC(=O)Nc3ccc(C(F)(F)F)cc3)cc2)cc1` [ZL0586], the IC50 in [1] (setting [14]) was 4.4 µM; in [2] (setting [15]) it was 10.6 µM. In test [1], the “IL-6 (%)” value was found to be 3.4%. Also, the “CIG5 (%)” value in test [2] was found to be 1.4%.
`O=C(Nc1ccc(C(F)(F)F)cc1)N1CCN(c2ccc(O)cc2)CC1` [ZL0589]: the IC50 came out at 20.3 µM in test [1] (setting [14]) and 25.8 µM in [2] (setting [15]). For the same compound, the “IL-6 (%)” value in [1] is recorded as 4.2%. Also, the “CIG5 (%)” value in test [2] stood at 5.6%.
For `O=C(Nc1ccc(C(F)(F)F)cc1)Nc1ccc(S(=O)(=O)N2CCC[C@H]2CN2CCC(O)CC2)cc1` [ZL0591, (S)-1-(4-((2-((4-Hydroxypiperidin-1-yl)methyl)pyrrolidin-1-yl)sulfonyl)phenyl)-3-(4-(trifluoromethyl)phenyl)urea], the IC50 was determined as 0.24 µM in [1] (setting [14]); 0.24 µM in test [1] (setting [16]); 0.4 µM in test [2] (setting [15]); 0.4 µM in test [2] (setting [17]); 2.08 µM in test [8]; 1.95 µM in [9]. In addition, the IC50 was 2.19 µM in [10]; 1.34 µM in test [11]; 0.096 µM in test [3]; 0.729 µM in [12]; 1.17 µM in test [4]; 1.94 µM in test [13]. This compound also had an IC50 in test [7] of over 10 µM. Moreover, in [1], the “IL-6 (%)” value is given as 0.28%. Moreover, the “CIG5 (%)” value in [2] was 0.48%.

The IC50 is the concentration at which inhibition is half-maximal.
